Experimental data published in ChEMBL document CHEMBL1649149, “Sitafloxacin and garenoxacin may overcome the antibiotic resistance of Helicobacter pylori with gyrA mutation” (2009).
Values after ≈ are worked out from the molar mass of the structure shown.

Columns and labels:
Type in all cases: functional
[1] = system: Helicobacter pylori; assay: Antibacterial activity against Helicobacter pylori infected in human assessed as bacterial eradication rate at 1 g, po BID for 7 days
[2] = system: Helicobacter pylori; assay: Antibacterial activity against Helicobacter pylori harboring gyrA mutant gene by agar dilution method
[3] = system: Helicobacter pylori; assay: Antibacterial activity against Helicobacter pylori infected in human assessed as bacterial eradication rate at 400 mg, po QD for 7 days
[4] = system: Helicobacter pylori; assay: Antibacterial activity against Helicobacter pylori harboring gyrA mutant gene assessed as resistant isolates
[5] = system: Helicobacter pylori; assay: Antibacterial activity against Helicobacter pylori infected in human assessed as bacterial eradication rate at 20 mg, po BID for 7 days
[6] = system: Helicobacter pylori; assay: Antibacterial activity against Helicobacter pylori harboring gyrA mutant gene
[7] = system: Helicobacter pylori; assay: Antibacterial activity against Helicobacter pylori harboring gyrA mutant gene infected in human assessed as bacterial eradication rate after 7 days
[8] = system: Helicobacter pylori; assay: Antibacterial activity against Helicobacter pylori infected in human assessed as bacterial eradication rate at 20 mg, po BID for 10 days by 13C-urea breath test
[9] = system: Helicobacter pylori; assay: Antibacterial activity against GAT-susceptible Helicobacter pylori infected in human assessed as bacterial eradication rate for 7 days
[10] = system: Helicobacter pylori; assay: Antibacterial activity against Helicobacter pylori

Row | SMILES | Activity [1] | MIC50 [2] | MIC90 [2] | Activity [3] | Activity [5] | Activity [7] | further results
1 | COc1c(N2CCNC(C)C2)c(F)cc2c(=O)c(C(=O)O)cn(C3CC3)c12 (configuration not stated) [GATIFLOXACIN] | 84.4% | 2 µg/mL (≈ 5.33 µM) | 4 µg/mL (≈ 10.7 µM) | 84.4% | 84.4% | 33.3% | Activity [4]: 47.9%; MIC [6]: ≥ 1 µg/mL
2 | COc1ccc2[nH]c([S+]([O-])Cc3ncc(C)c(OC)c3C)nc2c1 (configuration not stated) [OMEPRAZOLE] |  |  |  |  |  |  | Activity [8]: 66%
3 | COCCCOc1ccnc(C[S+]([O-])c2nc3ccccc3[nH]2)c1C (configuration not stated) [RABEPRAZOLE] | 84.4% |  |  | 84.4% | 84.4% |  | Activity [9]: 100%
4 | N[C@@H]1CN(c2c(F)cc3c(=O)c(C(=O)O)cn([C@@H]4C[C@@H]4F)c3c2Cl)CC12CC2 [SITAFLOXACIN ANHYDROUS] |  | 0.12 µg/mL (≈ 0.293 µM) | 0.25 µg/mL (≈ 0.61 µM) |  |  |  | MIC90 [10]: < 0.008 µg/mL
5 | C[C@H]1NCc2cc(-c3ccc4c(=O)c(C(=O)O)cn(C5CC5)c4c3OC(F)F)ccc21 [GARENOXACIN] |  | 0.5 µg/mL (≈ 1.17 µM) | 1 µg/mL (≈ 2.35 µM) |  |  |  | 
6 | CC1(C)S[C@@H]2[C@H](NC(=O)[C@H](N)c3ccc(O)cc3)C(=O)N2[C@H]1C(=O)O [AMOXICILLIN] | 84.4% |  |  | 84.4% | 84.4% | 33.3% | 
